Key:
estrogen receptor = molecular target: T1, estrogen receptor (Homo sapiens, UniProt P03372); assay: Western blot of estrogen receptor downregulation (FIG. 4); assay type: cell-based; settings: 10 nM concentrations
T1 construct: Whole-cell extracts of cultured cells were prepared in lysis buffer; endogenous in cells
T1 sequence (P03372 1-595): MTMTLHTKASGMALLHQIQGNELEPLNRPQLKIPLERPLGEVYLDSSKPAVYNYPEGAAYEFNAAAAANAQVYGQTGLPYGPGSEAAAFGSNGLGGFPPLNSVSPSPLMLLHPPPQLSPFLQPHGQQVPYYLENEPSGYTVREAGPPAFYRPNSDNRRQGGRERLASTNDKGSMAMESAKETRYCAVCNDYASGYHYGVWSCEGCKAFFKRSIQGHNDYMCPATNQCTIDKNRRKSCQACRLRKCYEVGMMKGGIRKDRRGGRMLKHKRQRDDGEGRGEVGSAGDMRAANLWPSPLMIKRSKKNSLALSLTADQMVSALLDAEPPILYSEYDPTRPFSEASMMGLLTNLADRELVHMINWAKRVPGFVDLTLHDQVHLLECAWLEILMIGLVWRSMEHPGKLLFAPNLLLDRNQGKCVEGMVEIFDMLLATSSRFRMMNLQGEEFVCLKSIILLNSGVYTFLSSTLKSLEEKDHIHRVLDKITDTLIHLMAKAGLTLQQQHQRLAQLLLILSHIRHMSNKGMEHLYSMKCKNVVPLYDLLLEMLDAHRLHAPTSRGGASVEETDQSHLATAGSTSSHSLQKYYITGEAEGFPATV
Procedure: Whole-cell extracts of cultured cells were prepared in lysis buffer (200 mmol/L Tris, 1% Triton X-100, 5 mmol/L; EDTA) with protease and phosphatase inhibitor cocktails (1:50, both from Sigma-Aldrich) after scraping from the culture plates. Protein concentration was measured using the Bradford method (Bio-Rad). Proteins were separated under denaturing conditions and blotted onto nitrocellulose membrane (Bio-Rad) using a wet transfer system (Bio-Rad). Images of blots were acquired on a Bio-Rad ChemiDoc System following incubation with SuperSignal West Dura luminol solution (Thermo Fisher Scientific).

[1] = Mouse plasma concentration after oral administration; assay type: in vivo; settings: average of three mice; for concentration at 0.5 h: 0.5 h after oral gavage at 100 mg/kg; for concentration at 4 h: 4 h after oral gavage at 100 mg/kg
MCF-7:Tam1 tumors = assay: MCF-7:TAM1 xenograft model of endocrine-resistant ER+ breast cancer; assay type: in vivo, ovariectomized athymic nude mice; settings: 100 mg/kg daily by oral gavage; GDN-0810 at day 23 after treatment
ERα = molecular target: T2, ERα (Homo sapiens, UniProt P03372); assay: ER downregulation/degradation by in-cell western (ICW) in MCF-7:WS8 cells; assay type: cell-based; settings: Table 2; read-out: IC50 of ER downregulation from in-cell western blot experiments
T2 construct: MCF-7:WS8 cells were kept in stripped medium 2 days; endogenous in cells; host or cells: MCF-7:WS8
T2 sequence (P03372 1-595): T1 sequence (P03372 1-595)

Estrogen receptor downregulation, western blot (estrogen receptor)	concentration at 0.5 h [1] [nM]	concentration at 4 h [1] [nM]	Structure (SMILES)	further results
–	1010	0.5	Cc1cccc(C)c1C(=O)c1sc2cc(O)ccc2c1Oc1ccc(/C=C/C(=O)O)cc1 [Compound 11, (E)-3-(4-((2-(2,6-Dimethylbenzoyl)-6-hydroxybenzo[b]thiophen-3-yl)oxy)phenyl) acrylic acid]	–
downregulate the estrogen receptor	5580	47	Cc1ccccc1C(=O)c1sc2cc(O)ccc2c1Oc1ccc(/C=C/C(=O)O)cc1 [Compound 5, (E)-3-(4-((6-Hydroxy-2-(2-methylbenzoyl)benzo[b]thiophen-3-yl)oxy)phenyl) acrylic acid]	–
downregulate the estrogen receptor	–	–	CCc1ccccc1C(=O)c1sc2cc(O)ccc2c1Oc1ccc(/C=C/C(=O)O)cc1 [Compound 3, (E)-3-(4-((2-(2-Ethylbenzoyl)-6-hydroxybenzo[b]thiophen-3-yl)oxy)phenyl) acrylic acid]	–
downregulate the estrogen receptor	–	–	Cc1ccsc1C(=O)c1sc2cc(O)ccc2c1Oc1ccc(/C=C/C(=O)O)cc1 [Compound 7, (E)-3-(4-((6-Hydroxy-2-(3-methylthiophene-2-carbonyl)benzo[b]thiophen-3-yl)oxy)phenyl) acrylic acid]	–
downregulate the estrogen receptor	1240	145	Cc1cc(F)ccc1C(=O)c1sc2cc(O)ccc2c1Oc1ccc(/C=C/C(=O)O)cc1 [Compound 1, (E)-3-(4-((2-(4-Fluoro-2-methylbenzoyl)-6-hydroxybenzo[b]thiophen-3-yl)oxy)phenyl)acrylic acid]	–

More lines, now with the values behind:

Structure (SMILES)	Estrogen receptor downregulation, western blot (estrogen receptor)	concentration at 0.5 h [1] [nM]	concentration at 4 h [1] [nM]	further results
Cc1ccc(F)cc1C(=O)c1sc2cc(O)ccc2c1Oc1ccc(/C=C/C(=O)O)cc1 [Compound 6, (E)-3-(4-((2-(5-Fluoro-2-methylbenzoyl)-6-hydroxybenzo[b]thiophen-3-yl)oxy)phenyl) acrylic acid]	downregulate the estrogen receptor	–	–	–
Cc1ccc(C(=O)c2sc3cc(O)ccc3c2Oc2ccc(/C=C/C(=O)O)cc2)c(C)c1 [Compound 12, (E)-3-(4-((2-(2,4-Dimethylbenzoyl)-6-hydroxybenzo[b]thiopben-3-yl)oxy)phenyl) acrylic acid]	–	3870	432	–
CC/C(=C(\c1ccccc1)c1ccc(OCCN(C)C)cc1)c1ccccc1 [Tamoxifen]	–	–	–	Regression of tumor size (tumor area reduction) (MCF-7:Tam1 tumors): entirely without effect
Cc1cc(Cl)cc(C)c1C(=O)c1sc2cc(O)ccc2c1Oc1ccc(/C=C/C(=O)O)cc1 [Compound 21, (E)-3-(4-((2-(4-Chloro-2,6-dimethylbenzoyl)-6-hydroxybenzo[b]thiophen-3-yl)oxy)phenyl) acrylic acid]	–	–	858	–
O=C(O)/C=C/c1ccc(Oc2c(C(=O)c3ccccc3)sc3cc(O)ccc23)cc1 [Compound 4, (E)-3-(4-((2-Benzoyl-6-hydroxybenzo[b]thiophen-3-yl)oxy)phenyl) acrylic acid]	–	–	–	DC50 (ERα): 5 nM
Cc1cc(F)cc(C)c1C(=O)c1sc2cc(O)ccc2c1Oc1ccc(/C=C/C(=O)O)cc1 [Compound 20, (E)-3-(4-((2-(4-Fluoro-2,6-dimethylbenzoyl)-6-hydroxybenzo[b]thiophen-3-yl)oxy)phenyl) acrylic acid]	–	9720	164	–

Reference: patent US10807964B2, “Benzothiophene-based selective estrogen receptor downregulators” (The Board of Trustees of the University of Illinois, priority 2015, dated 2020)
